Key:
[1] = in vivo; conditions: mouse, in vivo, po, mice, 7 days observation, read-out: LD50, acute oral toxicity
[2] = system: level of blood sugar; assay: Anti-hyperglycemia activity (reduction of blood sugar level); assay type: in vivo, rat (Wistar, streptozotocin); conditions: oral, 300 mg/kg
Procedure: A group of Wistar rats to which at first streptozotocin was interperitoneally administered at a rate of 60 mg/kg and of which the positivity of glycosuria was confirmed after a week of the administration and to which regular insulin was further administered and of which the reduction of levels of glucose in urine and blood was once confirmed, however, of which hyperglycemia and hyperglycosuria were again confirmed after a few days was chosen and used as model animals of glycosuria in the following test. After orally administering each of the present compounds to the model animals at a dose of 300 mg/kg body weight, as a solution or dispersion in distilled water, the blood was collected two times, respectively after 3 and 6 hours of the administration.

[3] = system: blood pressure; assay: Anti-hypertension activity (reduction of blood pressure); assay type: in vivo, rat (spontaneous hypertension); conditions: oral, 300 mg/kg
Procedure: Rats of spontaneous hypertension were orally administered with each of the present compounds as a solution or dispersion in distilled water at a dose rate of 300 mg/kg body weight. After 3 and 6 hours of the administration, the blood pressure of each rat was determined, and the difference between the above-determined value and the value just before the administeration was used as the index of the activity of reducing the blood pressure of the compound.

[4] = system: Sarcoma-180; assay: Anti-tumour activity against Sarcoma-180; assay type: in vivo, mouse (ICR-JCL); conditions: Mus musculus, Sarcoma-180, po, 600 h, 10 times every other day, tumour weight on 25th day, read-out: Antitumour activity, inhibiting rate (I.R.)
Procedure: Sarcoma-180 was transplanted into the axillary part of ICR-JCL mice at a rate of 1×10^6 cells/animal, and after 24 hours of transplantation, each of the present compounds as a solution or dispersion in sterilized physiological saline solution was orally administered to each of the transplanted mice 10 times every other day at a dose of 500 mg/kg/time. On 25th day of the transplantation, tumour node(s) were extirpated from all the mice to determine the weight of the tumour nodes.
Antitumour activity (activity of inhibiting the proliferation of the transplanted sarcoma) of each of the present compounds was derived by the following formula and shown in Table 6:
Antitumour activity (Inhibiting rate, I.R.)=(1-T/C)×100(%).
T represents the total weight of tumour nodes of the group of mice transplanted and administered with the present compound, and
C represents the total weight of tumour nodes of the group of mice transplanted, however, not administered with any agents.

[5] = system: total cholesterol; assay: Anti-hyperlipemia activity, total cholesterol in blood; assay type: in vivo, rabbit (Japanese white male); conditions: oral, 300 mg/kg once; for Reduction of cholesterol level after 3 hrs.: negative = raising
Procedure: (§1) Japanese white male rabbits were fed for 3 months with a solid diet containing 1% of cholesterol taken ad lib, and after confirming the raised lipid content of the serum of the rabbits, they were utilized as model animals suffering from experimental arteriosclerosis. Each of the present compounds was administered orally as a solution or dispersion in distilled water to the experimental animals of each group at a dose rate of 300 mg/kg once, and blood samples were taken at a predetermined time interval from the auricular vein of each animal. The content of cholesterol in the blood specimen was traced as the time passed by, with an enzymatic method, and the content of beta-lipoprotein in the same blood specimen was traced with a colorimetry. Each value in Table 7 is the difference between the level just before administration and the level after 3 or 6 hours of the administration.

[6] = system: beta-lipoprotein; assay: Anti-hyperlipemia activity, beta-lipoprotein in blood; assay type: in vivo, rabbit (Japanese white male); conditions: oral, 300 mg/kg once
Procedure: as §1

[7] = system: carrageenin edema; assay: Anti-Carrageenin edema activity; assay type: in vivo, rat; conditions: Rattus norvegicus, po, 1000 mg/kg once, read-out: I.R. against carrageenin edema
Procedure: After orally administering each of the present compounds forcibly to each group of rats, composed of 10 animals, as a solution or dispersion in distilled water at a dose of 1000 mg/kg once, 0.1 ml of an aqueous dispersion of 1% carrageenin in aqueous physiological saline solution was injected into the foot pad of the right hind leg of the administered animal following Van Arman et al. (1963). Thereafter, the thickness of the foot pad was measured at a time interval to find the rate of inhibiting of the swelling of the foot pad according to the following formula:
(§2) Rate of inhibition (I.R.) (%)=(1-T/C)×100
T means the average volume of the foot pad of the animals administered with one of the present compounds and carrageenin, and
C means that of the animal not administered with the present compound, however, administered with carrageenin.

[8] = system: cotton pellet granuloma; assay: Anti-granuloma activity (cotton pellet); assay type: in vivo, rat; conditions: Rattus norvegicus, po, 192 h, 7 days, read-out: I.R. against cotton pellet edema
Procedure: Following the method of Winter et al. (1963), each two cotton wool pellets, each weighing 30±1 mg, were implanted into the back of each rats of groups of rats, each group consisting of 6 animals, at the positions of mutually symmetrical concerning the median line of the rat. To these groups of the thus operated rats, the present compounds were respectively administered orally and forcibly as a solution or dispersion in distilled water for 7 continuous days, once a day at a dose of 1000 mg/kg/day. On 8th day of the implantation, the granuloma was extirpated and the dry weight of the granuloma was measured, the rate of inhibiting the proliferation of granuloma being obtained as in (5-1) being shown in Table 8.

[9] = system: exudation; assay: Anti-exudation activity (air pouch, croton oil); assay type: in vivo, rat; conditions: Rattus norvegicus, po, 144 h, 5 days, read-out: I.R. against exudation
Procedure: Following the method of Baris et al. (1965), air was injected subcutaneously into the back of groups of rats, each group consisting of 6 animals to make an air pouch, and 0.5 ml of sesame oil containing 1% by weight of croton oil was injected into the air pouch. Each of the present compounds was orally administered forcibly to each of the groups of rats as a solution or dispersion in distilled water at a dose rate of 1000 mg/kg/day for continued five days. The amount of liquid exudated into the air pouch was measured on 6th day of the operation. The rate of inhibiting the exudation of the liquid was obtained by the same manner as in (5-2) and the results are shown also in Table 8.

[10] = system: pseudo-escaping reaction to tail pressure; assay: Analgetic activity against mechanical stimulation of pressure; assay type: in vivo, mouse (ICR female); conditions: oral, 1000 mg/kg
[11] = system: acetic acid writhing; assay: Analgetic activity against chemical stimulation of acetic acid (writhing); assay type: in vivo, mouse (ICR female); conditions: Mus musculus, po, 30 min before 0.6% acetic acid, read-out: I.R. of writhing
Excerpt: as §2
T represents the average number of writhing of the group of mice administered with the present compound and injected with acetic acid, and C represents the average number of writhing of the group of mice only injected with acetic acid (control).

[12] = system: pyrexia (Saccharomyces cerevisiae); assay: Anti-pyrexia activity (yeast-induced); assay type: in vivo; conditions: Rattus norvegicus, oral, read-out: Rate of inhibiting pyrexia (I.R.)
Procedure: Following the method of Winter et al. (1961), an aqueous dispersion of 20% by weight of Saccharomyces cerevisiae was subcutaneously injected into groups of rats, each group consisting of 6 animals, and after 10-hour fasting, 1000 mg/kg of each of the present compounds was orally administered to the rat as a solution of dispersion in distilled water, and then the rectal temperature of the rat was measured at a predetermined interval of time to find the lowest temperature.
The anti-pyrexia activity of each compound was obtained from the following formula: […]
Anti-pyrexia activity represented by the rate of inhibition (I.R.)
C2 represents the average rectal temperature of negative control (non-treatment), not injected with the yeast and not administered with the present compound,
C1 represents the average temperature of positive control, injected with the yeast and not administered with the compound and T represents the temperature of tested animals, injected with the yeast and administered with the present compound.

SMILES | LD50 at 168 h [1] [mg/kg] | Reduced level of blood sugar after 3 hrs. [2] [mg/dL] | Reduced level of blood sugar after 6 hrs. [2] [mg/dL] | Reduced level of blood pressure after 3 hrs. [3] [mm Hg] | Reduced level of blood pressure after 6 hrs. [3] [mm Hg] | inhibition in vivo at 500 mg/kg [4] [%] | Reduction of cholesterol level after 3 hrs. [5] [mg/dL] | Reduction of cholesterol level after 6 hrs. [5] [mg/dL] | Reduction of beta-lipoprotein level after 3 hrs. [6] [mg/dL] | Reduction of beta-lipoprotein level after 6 hrs. [6] [mg/dL] | inhibition in vivo at 1000 mg/kg [7] [%] | inhibition in vivo at 1000 mg/kg/day [8] [%] | inhibition in vivo at 1000 mg/kg/day [9] [%] | Pseudo-escapting reaction pressure [10] [mmHg] | Pseudo-escapting reaction time [10] [s] | inhibition in vivo at 1000 mg/kg [11] [%] | inhibition in vivo at 1000 mg/kg [12] [%]
NC(=O)c1ccc(NC2O[C@H](CO)[C@@H](O)[C@H](O)[C@@H]2O)cc1 (stereo partly drawn) [Compound 4, p-aminobenzoic acid amide-N-D-mannoside] | 13600 | 110 | 116 | 14 | 20 | 42 | 0 | 46 | 123 | 135 | 12.1 | 14.9 | 5.7 | 96 | 45 | 41 | 28
C[C@@H]1OC(Nc2ccc(C(N)=O)cc2)[C@H](O)[C@H](O)[C@H]1O (stereo partly drawn) [Compound 5, p-aminobenzoic acid amide-N-L-rhamnoside] | 10500 | 91 | 128 | 17 | 18 | 39 | -1 | 32 | 134 | 148 | 4.2 | 16.8 | 12.4 | 90 | 41 | 52 | 59
C[C@@H]1OC(Nc2ccccc2C(=O)Oc2ccccc2)[C@H](O)[C@H](O)[C@H]1O (stereo partly drawn) [Compound 6, phenyl o-aminobenzoate-N-L-rhamnoside] | > 15000 | 121 | 146 | 22 | 23 | 44 | 4 | 57 | 152 | 155 | 7.6 | 20.5 | 19 | 98 | 43 | 37 | 69
O=C(Oc1ccccc1)c1cccc(NC2O[C@H](CO)[C@@H](O)[C@H](O)[C@@H]2O)c1 (stereo partly drawn) [Compound 7, phenyl m-aminobenzoate-N-D-mannoside] | 14800 | 144 | 159 | 24 | 26 | 49 | -2 | 62 | 141 | 150 | 5.9 | 25.3 | 7.5 | 95 | 44 | 46 | 31

From patent publication US4372948A, “Derivative of saccharide and physiologically active agent containing the same” (Kureha Kagaku Kogyo Kabushiki Kaisha, priority 1980, dated 1983)
